Test results taken from PMC9968717, “Breakthrough: a first-in-class virtual simulator for dose optimization of ACE inhibitors in translational cardiovascular medicine” (Scientific Reports, 2023).
Where a name gives a salt, the structure may show the parent alone.

Legend:
[1] = test system: ACE activity; details: dogs, cited from earlier work; for Duration of ACE suppression: single dose 0.5 mg/kg
[2] = dog, in vivo; cited from earlier work
[3] = Animal safety monitoring of study dogs given oral benazepril; format: in vivo; details: healthy beagles; benazepril PO 0.125 mg/kg q12h, 0.25 mg/kg q12h, 0.5 mg/kg q24h (crossover)
Description: All study dogs received all oral doses of benazepril as intended. Dogs were monitored for adverse effects associated with benazepril labeling as well those associated with general animal welfare e.g., vomiting, diarrhea, inappetence, weakness/hypotension, fatigue, incoordination, hypercreatininemia.
Nine purpose-bred laboratory beagles (5 castrated males and 4 spayed females), 40–42 months old, weighing 9.0–13.5 kg were randomized based on body weight and sex into three oral dosing groups of benazepril. Systemic and cardiovascular health of all dogs was confirmed prior to the study with physical examination, routine laboratory screening (complete blood count, serum biochemical analysis), blood pressure measurement, and echocardiography.
This 35-day prospective study was divided into three periods with three different benazepril dosing groups: (A) 0.125 mg/kg q12hr PO, (B) 0.25 mg/kg q12hr PO, and (C) 0.5 mg/kg q24hr PO. All dogs received all treatments using a […] crossover (ABC/BCA/CAB) design. Dogs were sampled in the same order at each time point and exact time of sampling was recorded. […]
Venous blood samples were collected from an external jugular or cephalic vein with a 1 inch, 20-gauge or 22-gauge needle attached to a 6 mL syringe. […] Samples for complete blood counts or serum chemistry panels were analyzed by the Iowa State Clinical Pathology Laboratory.

[4] = NLME/QSP model fit of plasma benazeprilat pharmacokinetics after oral benazepril; format: in vivo, dogs (beagles); details: beagle, dog, population estimate, beagles, read-out: Clearance rate of benazeprilat (ClI), fixed effect (converted)
Experimental: The PK portion of the base model was a conventional 2-compartment mammillary model with saturable exchange between the central and peripheral compartments. Building on this initial model, several modifications of the PK structure were evaluated. First, several standard compartment variations were tested i.e., using 1-, 2-, or 3-compartment disposition functions. Overall, a 2-compartment PK model outperformed the other candidate models based on the precision of individual parameters and overall quality of fit. Second, non-specific (low affinity, high capacity) binding of benazeprilat to plasma proteins was represented by a 3rd compartment within the central compartment, i.e., representing the free circulation of benazeprilat. The volume of the non-specific binding compartment (Vns) is a representation of the relative binding capacity of benazeprilat which is distributed in plasma but is not freely circulating or interacting with ACE. […] As is typical, quantity of benazeprilat passed between compartments is called Im, n, for inhibitor, where indexes m and n represent origin and destination compartments, respectively. […] Doses are administered in benazepril hcl, but are measured as the metabolite-benazeprilat. […] Dogs were sampled in the same order at each time point and exact time of sampling was recorded. […] The benazepril dose was calculated to the nearest 1.25 mg increment. […]

[5] = biological target: T1, ACE (Canis lupus familiaris, UniProt A0A8I3S3I6); assay: Michaelis–Menten model of ACE inhibition by benazeprilat within the QSP model fit; format: in vivo, dogs (beagles); details: population estimate, beagles
T1 construct: from tissue; host or cells: living healthy beagle dogs; ACE in free circulation (plasma) and in tissue
T1 sequence (A0A8I3S3I6 31-1241): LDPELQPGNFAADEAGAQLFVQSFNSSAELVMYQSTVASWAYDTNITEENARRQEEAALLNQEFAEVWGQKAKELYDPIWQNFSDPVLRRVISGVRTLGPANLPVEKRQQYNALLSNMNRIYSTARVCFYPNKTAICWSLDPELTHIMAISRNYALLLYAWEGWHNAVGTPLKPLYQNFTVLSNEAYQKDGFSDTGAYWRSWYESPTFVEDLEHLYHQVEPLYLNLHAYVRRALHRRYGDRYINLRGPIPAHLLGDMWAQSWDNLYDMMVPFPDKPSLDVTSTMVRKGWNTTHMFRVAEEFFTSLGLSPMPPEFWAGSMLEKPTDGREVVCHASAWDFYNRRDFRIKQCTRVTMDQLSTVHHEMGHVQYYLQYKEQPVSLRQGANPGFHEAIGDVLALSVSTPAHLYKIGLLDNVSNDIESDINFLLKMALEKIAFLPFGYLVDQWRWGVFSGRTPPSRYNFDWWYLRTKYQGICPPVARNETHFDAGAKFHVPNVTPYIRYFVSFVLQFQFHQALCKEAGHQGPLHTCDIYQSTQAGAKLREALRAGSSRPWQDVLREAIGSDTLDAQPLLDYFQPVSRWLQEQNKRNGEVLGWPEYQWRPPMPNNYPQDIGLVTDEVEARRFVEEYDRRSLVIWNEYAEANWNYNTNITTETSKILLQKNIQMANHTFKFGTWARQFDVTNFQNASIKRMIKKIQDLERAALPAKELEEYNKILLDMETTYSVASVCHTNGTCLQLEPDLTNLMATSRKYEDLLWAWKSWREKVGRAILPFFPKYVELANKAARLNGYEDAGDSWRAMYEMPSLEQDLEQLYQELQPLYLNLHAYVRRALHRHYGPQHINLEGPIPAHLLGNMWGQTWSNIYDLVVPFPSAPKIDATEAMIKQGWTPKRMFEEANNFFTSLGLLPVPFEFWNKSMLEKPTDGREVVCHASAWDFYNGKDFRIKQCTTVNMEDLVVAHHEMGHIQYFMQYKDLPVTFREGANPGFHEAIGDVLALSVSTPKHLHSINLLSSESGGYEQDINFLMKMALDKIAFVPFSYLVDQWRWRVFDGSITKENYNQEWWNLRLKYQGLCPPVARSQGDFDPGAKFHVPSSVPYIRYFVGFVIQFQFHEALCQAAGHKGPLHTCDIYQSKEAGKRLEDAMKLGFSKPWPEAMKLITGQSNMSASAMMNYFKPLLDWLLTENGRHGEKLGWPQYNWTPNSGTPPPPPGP
Description: Benazeprilat primary mechanism of action is inhibiting ACE to prevent the catalysis of AngI into AngII. To account for this mechanism, a logistic saturation model was first implemented. […] The distribution of ACE across tissue (ts) and free circulation (fr) was also considered. The nomenclature used throughout Eq. (3) is consistent with previous descriptions of the Michaelis–Menten model[26].3 E˙fr=-k-1·Efr·Sfr+k1·ESfr-k-3·Efr·Ifr+k3·EIfr+k2·ESfrE˙Sfr=k-1·Efr·Sfr-k1·ESfr-k2·ESfrE˙Ifr=k-3·Efr·Ifr-k3·EIfrE˙ts=-k-1·Ets·Sts+k1·ESts-k-3·Ets·Its+k3·EIts+k2·EStsE˙Sts=k-1·Ets·Sts-k1·ESts-k2·EStsE˙Its=k-3·Ets·Its-k3·EIts
Figure 3 Detailed model diagram. Detailed diagram of the final model structure. […] A Michaelis–Menten kinetic model of inhibitor, substrate, and enzyme interaction was used to describe the competitive inhibition of ACE by benazeprilat. k3 and k-3 were the parameters governing ACE-benazeprilat (enzyme-inhibitor) association and dissociation, while k1 and k-1 determined the rate of ACE-angiotensin (enzyme–substrate) association and dissociation. k2 controlled the production rate of angiotensin II from angiotensin I via ACE. […]
The recorded data (yij) were imported into Monolix […] (Lixoft, France) and used to estimate population parameters (μ) and variance via the stochastic approximation expectation maximization algorithm (SAEM)[46]. […]

[6] = single PO dose, ref 2 (b6), ref 17 King et al.

SMILES | Duration of ACE suppression [1] | Dose up to which safety has been established [2] | Dosage from which ACE inhibition in plasma was independent of dosage [1, 6] | Duration of suppression of ACE activity [1, 6] | Adverse effects [3] | Serial complete blood counts and chemistry panels: hematologic or biochemical abnormalities [3] | clearance [4] | Rate of ACE-benazeprilat dissociation in vivo, scaled (k3s), fixed effect [5]
CCOC(=O)[C@H](CCc1ccccc1)N[C@@H](C)C(=O)N1CCC[C@H]1C(=O)O [enalapril] | < 12 h | – | – | – | – | – | – | –
CCOC(=O)[C@H](CCc1ccccc1)N[C@H]1CCc2ccccc2N(CC(=O)O)C1=O [benazepril, Benazepril hydrochloride] | < 12 h | up to 1 mg/kg q24h | ≥ 0.25 mg/kg | up to 24 h | No adverse effects were observed | no evidence of hematologic or biochemical abnormalities | – | –
O=C(O)CN1C(=O)[C@@H](N[C@@H](CCc2ccccc2)C(=O)O)CCc2ccccc21 [benazeprilat] | – | – | – | – | – | – | 455 mL/min | 7.0 s⁻¹
